Data published in patent publication US11975044B2, “Methods for treating cancers using fat specific protein 27 (FSP27) compositions” (Ohio University, priority 2017, dated 2024).
Read-outs that look alike come from different tables or passages of the source. Residues, ends and D or L forms follow the SMILES beside them. No end group written: not given here.

Key:
Assay type in all cases: cell-based
[1] = test system: SK-MEL-28 human melanoma cells; conditions: 48 hr; for efficacy in inhibiting cell viability: human melanoma, 50 nM; for inhibition of cell viability: human, 100 nM
From the text: (§1) FIG. 10: Effect of CIDEC and fragment peptides on human melanoma cell (SK-MEL-28) viability. [full-length CIDEC, #1, #2, #4, #5, #6=shorter fragment peptides of full-length CIDEC]; Cell: human melanoma cells SK-MEL-28; Assay: Cell viability assay (Presto-Blue, Invitrogen); Doses (nM): 0, 50, 100; Treatment period (hr): 48.
(§2) Human cancer cell lines (part of NCI-60 panel of human cancer cells)—SK-MEL-5 (melanoma), SK-MEL-28 (melanoma), MCF-7 (breast cancer), 786-0 (renal cancer), A498 (renal cancer), Hep-G2 (liver cancer), SK-HEP-1 (liver cancer), PANC-1 (pancreatic cancer), and normal human skin fibroblast cells MALME-3 cells were obtained from American Type Culture Collection (ATCC; Manassas, VA). The cells were grown and maintained in corresponding complete growth medium—PANC-1 in DMEM medium (ATCC), 786-0 in RPMI-1640 medium, remaining cell lines in EMEM media (ATCC), and MALME-3 in McCoy's medium (ATCC)—as indicated by ATCC protocols. Complete growth media was supplemented with 10% fetal bovine serum (FBS; ATCC) and 1× antibiotic-antimycotic (Thermo Fisher Scientific, Waltham, MA). MALME-3 cells were grown in McCoy's medium (ATCC) supplemented with 15% FBS and 1× antibiotic-antimycotic. Cells were grown at 37C/5% CO2 in a humidified incubator. Media was replaced every third day.
(§3) Recombinant hGH was purchased from Antibodies Online (Atlanta, GA), GH antagonist (GHA; Somavert) was obtained from Pfizer (New York City, NY), full length CIDEC was purchased from Abcam (Cambridge, UK) and CIDEC fragment peptides were synthesized at Genscript (Piscataway, NJ). No hGH or GHA was present in the media or added externally unless specifically mentioned. […]
(§4) A resazurin based absorption assay was performed measuring cell proliferation, as a measure of inhibition of cell growth/viability. There are several commonly practiced assays using tetrazolium (MTT, MTS, XTT), or resazurin which give a quantitative reflection of cell viability. […] Proliferating cells can be quantified by spectrophotometric measurement of a bright pink fluorescent product called resorufin (stable for >4 hr) formed when mildly fluorescent blue resazurin enters a reducing intracellular environment characteristic of proliferating cells. […] The resazurin assay was performed following the respective treatment periods and resorufin absorbance was measured at 570 nm (reference wavelength=600 nm) using Spectramax250 (Molecular Devices, Sunnyvale, CA) and SoftmaxPro software. […]
A 1% (w/v) resazurin (Sigma-Aldrich) solution in 1×PBS was made and filter-sterilized. […] Inside the proliferating cells mildly fluorescent blue resazurin is reduced to a bright pink fluorescent product called resorufin (stable for 4 hr), which is a quantitative measure of the percentage of proliferating cells. […]

[2] = test system: HepG2 human liver cancer (hepatocellular carcinoma) cells; test: cells; conditions: for efficacy in inhibiting cell viability: human liver cancer, 50 nM; for inhibition of cell viability: human, 100 nM
Protocol: as §2
as §3, with “mentioned. For hGH treatment, 16 hr. after cell seeding (or 24 hr. post-transfection), any GH or GHA or CIDEC or peptides were added at specific concentrations.” for “mentioned.”
(§5) A resazurin based absorption assay was performed measuring cell proliferation, as a measure of inhibition of cell growth/viability. There are several commonly practiced assays using tetrazolium (MTT, MTS, XTT), or resazurin which give a quantitative reflection of cell viability. Although ATP detection assay is the most sensitive of the available options, resazurin-based assay is considered adequate and is routinely used to measure compound EC50s or cell viability following cytotoxic treatments. A stock solution of 1% (w/v) resazurin (Sigma-Aldrich #R7017) in 1×PBS was made and filter-sterilized. The final concentration of resazurin in the assay was 0.004%. Proliferating cells can be quantified by spectrophotometric measurement of a bright pink fluorescent product called resorufin (stable for >4 hr) formed when mildly fluorescent blue resazurin enters a reducing intracellular environment characteristic of proliferating cells. Cells were seeded at 10,000 cells/cm^2 into 96-well plates and transfected as described above. The resazurin assay was performed following the respective treatment periods and resorufin absorbance was measured at 570 nm (reference wavelength=600 nm) using Spectramax250 (Molecular Devices, Sunnyvale, CA) and SoftmaxPro software. In all cases, cells were incubated at 37C/5% CO2 for 1 hr following resazurin addition. The resazurin assay for cell proliferation was used to measure EC-50 of relevant drugs and Graph Pad Prism was used to calculate EC-50 shifts (EC50 shift=EC50 of treated cell line/EC50 of parental cell line.
(§6) A 1% (w/v) resazurin (Sigma-Aldrich) solution in 1×PBS was made and filter-sterilized. The final concentration of resazurin in the assay was 0.004%. Inside the proliferating cells mildly fluorescent blue resazurin is reduced to a bright pink fluorescent product called resorufin (stable for 4 hr), which is a quantitative measure of the percentage of proliferating cells. In all cases, cells were incubated at 37C/5% CO2 for 45-60 minutes for adequate sensitivity of detection. Briefly, cells were seeded at 10,000 cells/cm^2 into 96-well plates and transfected as described above. The resazurin assay was performed 60 hr after transfection (unless specified otherwise) and resorufin absorbance was measured at 570 nm (reference wavelength=600 nm) using Spectramax250 (Molecular Devices) and SoftmaxPro v4.7.1 software. […]

[3] = test system: 786-O human renal cancer (clear cell renal cell carcinoma) cells; conditions: for efficacy in inhibiting cell viability: human kidney cancer, 50 nM; for efficacy in inhibiting cell viability / inhibition of cell viability: 48 hr; for inhibition of cell viability: human, 100 nM
From the text: as §1, with “11:” for “10:”, “renal cancer” for “melanoma”, “(786-0)” for “(SK-MEL-28)”, “renal cancer cells;” for “melanoma cells SK-MEL-28;”
as §2
as §3, with “mentioned. For hGH treatment, 16 hr. after cell seeding (or 24 hr. post-transfection), any GH or GHA or CIDEC or peptides were added at specific concentrations.” for “mentioned.”
as §5
as §6, with “above.” for “above. The resazurin assay was performed 60 hr after transfection (unless specified otherwise) and resorufin absorbance was measured at 570 nm (reference wavelength=600 nm) using Spectramax250 (Molecular Devices) and SoftmaxPro v4.7.1 software.”

[4] = test system: cells; test: Anti-cancer effect of FSP27 segment in cells
[5] = test system: SK-MEL-28 human melanoma cells
[6] = test system: MCF-7 human breast cancer cells; test: Cell viability assay (Presto-Blue / resazurin), MCF-7
Protocol: as §2, with “MALME-3 cells were grown in McCoy's medium (ATCC) supplemented with 15% FBS and 1× antibiotic-antimycotic. Cells were grown at 37C/5% CO2 in a humidified incubator. Media was replaced every third day.” left out
(§7) A resazurin based absorption assay was performed measuring cell proliferation, as a measure of inhibition of cell growth/viability. There are several commonly practiced assays using tetrazolium (MTT, MTS, XTT), or resazurin which give a quantitative reflection of cell viability. […] Proliferating cells can be quantified by spectrophotometric measurement of a bright pink fluorescent product called resorufin (stable for >4 hr) formed when mildly fluorescent blue resazurin enters a reducing intracellular environment characteristic of proliferating cells. […]

[7] = test system: human normal fibroblast cells; test: Cell viability assay (Presto-Blue / resazurin), normal fibroblasts; conditions: exposure to up to 100 nM CIDEC, 24 hr
Protocol: FIG. 6: Effect of CIDEC on human normal fibroblast cells; Cell: human normal fibroblast cells; Assay: Cell viability assay (Presto-Blue, Invitrogen); Doses (nM): 0, 50, 100 nM; Treatment period (hr): 24.
Human cancer cell lines (part of NCI-60 panel of human cancer cells)—SK-MEL-5 (melanoma), SK-MEL-28 (melanoma), MCF-7 (breast cancer), 786-0 (renal cancer), A498 (renal cancer), Hep-G2 (liver cancer), SK-HEP-1 (liver cancer), PANC-1 (pancreatic cancer), and normal human skin fibroblast cells MALME-3 cells were obtained from American Type Culture Collection (ATCC; Manassas, VA). […]
as §4

[8] = test system: PANC-1 human pancreatic ductal adenocarcinoma cells; test: Cell viability assay (Presto-Blue / resazurin), PANC-1
Protocol: as §2, with “MALME-3 cells were grown in McCoy's medium (ATCC) supplemented with 15% FBS and 1× antibiotic-antimycotic. Cells were grown at 37C/5% CO2 in a humidified incubator. Media was replaced every third day.” left out
as §7

CC[C@H](C)[C@H](NC(=O)[C@H](CCCCN)NC(=O)[C@H](CCCCN)NC(=O)[C@H](C)NC(=O)[C@@H]1CCCN1C(=O)[C@H](CCCCN)NC(=O)[C@H](Cc1c[nH]cn1)NC(=O)[C@H](CO)NC(=O)[C@H](CC(C)C)NC(=O)[C@H](CO)NC(=O)[C@H](CC(C)C)NC(=O)[C@@H]1CCCN1C(=O)[C@H](Cc1c[nH]cn1)NC(=O)[C@H](CCCNC(=N)N)NC(=O)[C@@H](NC(=O)CNC(=O)[C@H](CCC(N)=O)NC(=O)[C@H](CCC(=O)O)NC(=O)[C@@H](N)CO)[C@@H](C)O)C(=O)N[C@@H](CC(=O)O)C(=O)N[C@H](C(=O)O)C(C)C [Cf4] (H-SEQGTRHPLSLSHKPAKKIDV-OH; N-terminus and C-terminus assumed)
efficacy in inhibiting cell viability [1]: highly efficacious
inhibition of cell viability [1]: 100%
efficacy in inhibiting cell viability ([2]; 48 hr): highly efficacious
inhibition of cell viability ([2]; 48 hr): 100%
efficacy in inhibiting cell viability [3]: highly efficacious
inhibition of cell viability [3]: 100%

COc1cccc2c1C(=O)c1c(O)c3c(c(O)c1C2=O)C[C@@](O)(C(=O)CO)C[C@@H]3O[C@H]1C[C@H](N)[C@H](O)[C@H](C)O1 [doxorubicin, reference compound]
EC50 ([2]; Homo sapiens, HepG2, read-out: doxorubicin EC50 for HepG2): 190 nM
cells killed ([2]; doxorubicin 300 nM, in absence of CIDEC): > 90%

YDLHCCGAKRIMKEAFRWALFSMQATGHVLLGTSCYLQQLLDATEEGQ (cysteines drawn unpaired) [Cf2]
efficacy in inhibiting cell viability [1]: highly efficacious
inhibition of cell viability [1]: 100%
efficacy in inhibiting cell viability ([2]; 48 hr): highly efficacious
inhibition of cell viability ([2]; 48 hr): 100%
efficacy in inhibiting cell viability [3]: highly efficacious
inhibition of cell viability [3]: 100%

segment 120-140: segment of FSP27, amino acids 120-140; FIG. 13 discloses SEQ ID NO: 4, so possibly Cf4 (SEQGTRHPLSLSHKPAKKIDV)
efficacy towards anti-cancer effect in cells [4]: maximum efficacy

B1: CIDEC: human full-length CIDEC (FSP27) protein, purchased from Abcam (protein, UniProt Q96AQ7 1-238, looked up)
chain: MEYAMKSLSLLYPKSLSRHVSVRTSVVTQQLLSEPSPKAPRARPCRVSTADRSVRKGIMAYSLEDLLLKVRDTLMLADKPFFLVLEEDGTTVETEEYFQALAGDTVFMVLQKGQKWQPPSEQGTRHPLSLSHKPAKKIDVARVTFDLYKLNPQDFIGCLNVKATFYDTYSLSYDLHCCGAKRIMKEAFRWALFSMQATGHVLLGTSCYLQQLLDATEEGQPPKGKASSLIPTCLKILQ
modifications: full-length
notes: human full-length CIDEC (FSP27) protein, purchased from Abcam
effect on efficacy of sorafenib-tosylate against liver cancer ([2]; 50 nM CIDEC plus anti-cancer drug, 48 hr): significant increase in efficacy
EC50 ([2]; HepG2, 0-400 nM CIDEC, read-out: EC50 (dose that causes 50% decrease of cell viability)): 65 nM
IC50 ([2]; HepG2, 24 hr, doses 0-400 nM, read-out: IC50, sigmoid inhibition curve of cell viability): 65 nM
decrease in cell viability of liver cancer cells treated with sorafenib-tosylate ([2]; co-administration of fl-CIDEC with sorafenib-tosylate (1000 nM), 24 hr): 2 fold
EC50 ([3]; 786-0, up to 400 nM CIDEC, read-out: EC50 (cell viability)): > 400 nM
IC50 ([3]; 786-O, 24 hr, doses 0-400 nM, read-out: IC50, sigmoid inhibition curve of cell viability): > 400 nM
improvement of drug effects in human melanoma ([5]; 50 nM CIDEC plus anti-cancer drugs, 48 hr): did not improve drug effects
IC50 ([5]; SK-MEL-28, 24 hr, doses 0-400 nM, read-out: IC50, sigmoid inhibition curve of cell viability): > 400 nM
EC50 ([5]; SK-MEL-28, up to 400 nM CIDEC, read-out: EC50 (cell viability)): > 400 nM
improvement of cell inhibition rate above that of doxorubicin or vemurafenib ([5]; co-administration, 24 hr, doxorubicin 300 nM, vemurafenib 50 nM): did not improve the cell inhibition rate
EC50 ([6]; MCF-7, 0-400 nM CIDEC): 187 nM
IC50 ([6]; MCF-7, 24 hr, doses 0-400 nM, read-out: IC50, sigmoid inhibition curve of cell viability): 187 nM
decrease in cell viability of normal cells [7]: no significant decrease in cell viability
EC50 ([8]; PANC1, 0-400 nM CIDEC): 132 nM
IC50 ([8]; PANC-1, 24 hr, doses 0-400 nM, read-out: IC50, sigmoid inhibition curve of cell viability): 132 nM
